In US20240189495A1, “METHODS OF PREPARING AN EXTRACORPOREAL CIRCUIT FOR ANTICOAGULATION” (Lawell Therapeutics, LLC, priority 2021, published 2024):

Columns and labels:
Assay type in all cases: physicochemical
[1] = Adsorption of nafamostat to circuit tubing, in vitro dialysis circuit without filter, HPLC; conditions: for Percent of Nafamostat Remaining as a Ratio of the Starting Concentration at Time 0: tubing only, no filter
Method: A dialysis apparatus was established as described in FIG. 5 without using a filter. An experiment was conducted to determine the adsorption characteristics to the tubing. The solution was circulated through the tubing at typical CRRT flow rates of 100-300 milliliters per minute (FIG. 5). The concentration of nafamostat was measured via HPLC at 0, 5, 10 and 20 minutes. Only one reservoir of nafamostat was used. Therefore, any change in concentration represents adsorption since the molecule cannot escape the system. […] Therefore, any change in concentration can be attributed to adsorption onto the filter membrane tested.

[2] = Saturation of polyacrylonitrile filter by repeated replenishment of nafamostat solution (Example 8)
Method: To determine if a polyacrylonitrile filter can be saturated, and if so, what quantity of nafamostat would be required, an in vitro experiment was conducted wherein 632 milligrams of nafamostat were passed through the filter in the same manner as described in FIG. 5 for 20 minutes. Then the solution was replenished with an additional 632 milligrams (solution B-1), which was circulated for an additional 20 minutes, followed by replenishment with an additional 632 milligrams (solution B-2), which was circulated for an additional 20 minutes and finally replenished with an additional 379 milligrams. The total quantity of 2275 milligrams represents a three-day consumption of nafamostat at the maximum dose of 31.2 mg/h. As one can see from Table 4, nafamostat continues to adsorb to the polyacrylonitrile filter even after the entire quantity of 2275 milligrams has been delivered.

[3] = Filter membrane adsorption in in vitro dialysis circuit, HPLC; conditions: for Quantity (% nafamostat free base) remaining after the initiation of priming: 500 mL; for Quantity (mcg nafamostat free base) adsorbed over time (minutes), Avg.: average of 5, 10, 20 min; for Time in which the change in concentration is complete: regardless the solution concentration
Method: A dialysis apparatus was established as described in FIG. 5 using a PS, PES, PAES, or a PAN filter. A series of experiments was conducted using various filter membranes in an in vitro model to determine the filter membrane adsorption characteristics. A solution of nafamostat was circulated through the blood and dialysate sides of the filter at typical CRRT flow rates of 100-300 milliliters per minute. The concentration of nafamostat was measured via HPLC at 0, 5, 10 and 20 minutes. Only one reservoir of nafamostat was used. Therefore, any change in concentration represents adsorption since the molecule cannot escape the system. The following filters were used: Polyethersulfone (PES) from […], part number CAR-505; Polyarylethersulfone (PAES) from Baxter, part number HF1000; Polyacrylonitrile (PAN) from Baxter, part number M100; Polysulfone (PS) from Baxter, part number F50; no filter, tubing only from Baxter, part number M100. Baxter tubing was used for all filter tests.

- Percent of Nafamostat Remaining as a Ratio of the Starting Concentration at Time 0 ([1]; 0 min): 100%
- Percent of Nafamostat Remaining as a Ratio of the Starting Concentration at Time 0 ([1]; 5 min): 100%
- Percent of Nafamostat Remaining as a Ratio of the Starting Concentration at Time 0 ([1]; 10 min): 101%
- Percent of Nafamostat Remaining as a Ratio of the Starting Concentration at Time 0 ([1]; 20 min): 100%
- Adsorption onto the tubing ([1]; tubing used for all tests): does not adsorb substantially
- Amount of Nafamostat Remaining as a Ratio of the Starting Concentration at Time 0 ([2]; Example 8, Solution A 632 mg, 0 min): 99.2%
- Amount of Nafamostat Remaining as a Ratio of the Starting Concentration at Time 0 ([2]; Example 8, Solution A 632 mg, 5 min): 8.5%
- Amount of Nafamostat Remaining as a Ratio of the Starting Concentration at Time 0 ([2]; Example 8, Solution A 632 mg, 10 min): 0.8%
- Amount of Nafamostat Remaining as a Ratio of the Starting Concentration at Time 0 ([2]; Example 8, Solution A 632 mg, 20 min): 0.0%
- Amount of Nafamostat Remaining as a Ratio of the Starting Concentration at Time 0 ([2]; Example 8, Solution B-1, added 632 mg, 0 min): 100.0%
- Amount of Nafamostat Remaining as a Ratio of the Starting Concentration at Time 0 ([2]; Example 8, Solution B-1, added 632 mg, 5 min): 14.6%
- Amount of Nafamostat Remaining as a Ratio of the Starting Concentration at Time 0 ([2]; Example 8, Solution B-1, added 632 mg, 10 min): 6.2%
- Amount of Nafamostat Remaining as a Ratio of the Starting Concentration at Time 0 ([2]; Example 8, Solution B-1, added 632 mg, 20 min): 3.1%
- Amount of Nafamostat Remaining as a Ratio of the Starting Concentration at Time 0 ([2]; Example 8, Solution B-2, added 632 mg, 0 min): 100.0%
- Amount of Nafamostat Remaining as a Ratio of the Starting Concentration at Time 0 ([2]; Example 8, Solution B-2, added 632 mg, 5 min): 20.0%
- Amount of Nafamostat Remaining as a Ratio of the Starting Concentration at Time 0 ([2]; Example 8, Solution B-2, added 632 mg, 10 min): 14.6%
- Amount of Nafamostat Remaining as a Ratio of the Starting Concentration at Time 0 ([2]; Example 8, Solution B-2, added 632 mg, 20 min): 10.8%
- Amount of Nafamostat Remaining as a Ratio of the Starting Concentration at Time 0 ([2]; Example 8, Solution B-3, added 379 mg, 0 min): 100.0%
- Amount of Nafamostat Remaining as a Ratio of the Starting Concentration at Time 0 ([2]; Example 8, Solution B-3, added 379 mg, 5 min): 20.8%
- Amount of Nafamostat Remaining as a Ratio of the Starting Concentration at Time 0 ([2]; Example 8, Solution B-3, added 379 mg, 10 min): 19.2%
- Amount of Nafamostat Remaining as a Ratio of the Starting Concentration at Time 0 ([2]; Example 8, Solution B-3, added 379 mg, 20 min): 17.7%
- Saturation of the PAN filter with nafamostat ([2]; total quantity of 2275 milligrams delivered): cannot be saturated
- Quantity (% nafamostat free base) remaining after the initiation of priming ([3]; Example 2, PS F50, 158 mcg/mL, 0 min): 100%
- Quantity (% nafamostat free base) remaining after the initiation of priming ([3]; Example 2, PS F50, 158 mcg/mL, 5 min): 96.7%
- Quantity (% nafamostat free base) remaining after the initiation of priming ([3]; Example 2, PS F50, 158 mcg/mL, 10 min): 96.8%
- Quantity (% nafamostat free base) remaining after the initiation of priming ([3]; Example 2, PS F50, 158 mcg/mL, 20 min): 97.2%
- Quantity (mcg nafamostat free base) adsorbed over time (minutes) ([3]; Example 2, PS F50, prime quantity 79,000 mcg, 5 min): 2,620 mcg
- Quantity (mcg nafamostat free base) adsorbed over time (minutes) ([3]; Example 2, PS F50, prime quantity 79,000 mcg, 10 min): 2,559 mcg
- Quantity (mcg nafamostat free base) adsorbed over time (minutes) ([3]; Example 2, PS F50, prime quantity 79,000 mcg, 20 min): 2,222 mcg
- Quantity (mcg nafamostat free base) adsorbed over time (minutes), Avg. ([3]; Example 2, PS F50, prime quantity 79,000 mcg): 2,467 mcg
- Quantity (% nafamostat free base) remaining after the initiation of priming ([3]; Example 3, PES CAR-505, 158 mcg/mL, 0 min): 100%
- Quantity (% nafamostat free base) remaining after the initiation of priming ([3]; Example 3, PES CAR-505, 158 mcg/mL, 5 min): 95.6%
- Quantity (% nafamostat free base) remaining after the initiation of priming ([3]; Example 3, PES CAR-505, 158 mcg/mL, 10 min): 95.6%
- Quantity (% nafamostat free base) remaining after the initiation of priming ([3]; Example 3, PES CAR-505, 158 mcg/mL, 20 min): 95.6%
- Quantity (mcg nafamostat free base) adsorbed over time (minutes) ([3]; Example 3, PES CAR-505, prime quantity 79,000 mcg, 5 min): 3,555 mcg
- Quantity (mcg nafamostat free base) adsorbed over time (minutes) ([3]; Example 3, PES CAR-505, prime quantity 79,000 mcg, 10 min): 3,555 mcg
- Quantity (mcg nafamostat free base) adsorbed over time (minutes) ([3]; Example 3, PES CAR-505, prime quantity 79,000 mcg, 20 min): 3,555 mcg
- Quantity (mcg nafamostat free base) adsorbed over time (minutes), Avg. ([3]; Example 3, PES CAR-505, prime quantity 79,000 mcg): 3,555 mcg
- Quantity (% nafamostat free base) remaining after the initiation of priming ([3]; Example 4, PAES HF1000, 158 mcg/mL, 0 min): 100%
- Quantity (% nafamostat free base) remaining after the initiation of priming ([3]; Example 4, PAES HF1000, 158 mcg/mL, 5 min): 96.9%
- Quantity (% nafamostat free base) remaining after the initiation of priming ([3]; Example 4, PAES HF1000, 158 mcg/mL, 10 min): 97.2%
- Quantity (% nafamostat free base) remaining after the initiation of priming ([3]; Example 4, PAES HF1000, 158 mcg/mL, 20 min): 97.1%
- Quantity (mcg nafamostat free base) adsorbed over time (minutes) ([3]; Example 4, PAES HF1000, prime quantity 79,000 mcg, 5 min): 2,446 mcg
- Quantity (mcg nafamostat free base) adsorbed over time (minutes) ([3]; Example 4, PAES HF1000, prime quantity 79,000 mcg, 10 min): 2,184 mcg
- Quantity (mcg nafamostat free base) adsorbed over time (minutes) ([3]; Example 4, PAES HF1000, prime quantity 79,000 mcg, 20 min): 2,261 mcg
- Quantity (mcg nafamostat free base) adsorbed over time (minutes), Avg. ([3]; Example 4, PAES HF1000, prime quantity 79,000 mcg): 2,297 mcg
- Quantity (% nafamostat free base) remaining after the initiation of priming ([3]; Example 5, PAN M100, 158 mcg/mL, 0 min): 98.7%
- Quantity (% nafamostat free base) remaining after the initiation of priming ([3]; Example 5, PAN M100, 158 mcg/mL, 5 min): 20.5%
- Quantity (% nafamostat free base) remaining after the initiation of priming ([3]; Example 5, PAN M100, 158 mcg/mL, 10 min): 4.3%
- Quantity (% nafamostat free base) remaining after the initiation of priming ([3]; Example 5, PAN M100, 158 mcg/mL, 20 min): 0.3%
- Quantity (mcg nafamostat free base) adsorbed over time (minutes) ([3]; Example 5, PAN M100, prime quantity 79,000 mcg, 5 min): 61,770 mcg
- Quantity (mcg nafamostat free base) adsorbed over time (minutes) ([3]; Example 5, PAN M100, prime quantity 79,000 mcg, 10 min): 74,594 mcg
- Quantity (mcg nafamostat free base) adsorbed over time (minutes) ([3]; Example 5, PAN M100, prime quantity 79,000 mcg, 20 min): 77,732 mcg
- Quantity (mcg nafamostat free base) adsorbed over time (minutes), Avg. ([3]; Example 5, PAN M100, prime quantity 79,000 mcg): 71,365 mcg
- Quantity (% nafamostat free base) remaining after the initiation of priming ([3]; Example 6, PAN M100, 316 mcg/mL, 0 min): 99.5%
- Quantity (% nafamostat free base) remaining after the initiation of priming ([3]; Example 6, PAN M100, 316 mcg/mL, 5 min): 20.4%
- Quantity (% nafamostat free base) remaining after the initiation of priming ([3]; Example 6, PAN M100, 316 mcg/mL, 10 min): 4.3%
- Quantity (% nafamostat free base) remaining after the initiation of priming ([3]; Example 6, PAN M100, 316 mcg/mL, 20 min): 0.4%
- Quantity (mcg nafamostat free base) adsorbed over time (minutes) ([3]; Example 6, PAN M100, prime quantity 158,000 mcg, 5 min): 124,946 mcg
- Quantity (mcg nafamostat free base) adsorbed over time (minutes) ([3]; Example 6, PAN M100, prime quantity 158,000 mcg, 10 min): 150,288 mcg
- Quantity (mcg nafamostat free base) adsorbed over time (minutes) ([3]; Example 6, PAN M100, prime quantity 158,000 mcg, 20 min): 156,502 mcg
- Quantity (mcg nafamostat free base) adsorbed over time (minutes), Avg. ([3]; Example 6, PAN M100, prime quantity 158,000 mcg): 143,912 mcg
- Quantity (% nafamostat free base) remaining after the initiation of priming ([3]; Example 7, PAN M100, 632 mcg/mL, 0 min): 99.1%
- Quantity (% nafamostat free base) remaining after the initiation of priming ([3]; Example 7, PAN M100, 632 mcg/mL, 5 min): 17.4%
- Quantity (% nafamostat free base) remaining after the initiation of priming ([3]; Example 7, PAN M100, 632 mcg/mL, 10 min): 2.7%
- Quantity (% nafamostat free base) remaining after the initiation of priming ([3]; Example 7, PAN M100, 632 mcg/mL, 20 min): 0.04%
- Quantity (mcg nafamostat free base) adsorbed over time (minutes) ([3]; Example 7, PAN M100, prime quantity 316,000 mcg, 5 min): 258,314 mcg
- Quantity (mcg nafamostat free base) adsorbed over time (minutes) ([3]; Example 7, PAN M100, prime quantity 316,000 mcg, 10 min): 304,629 mcg
- Quantity (mcg nafamostat free base) adsorbed over time (minutes) ([3]; Example 7, PAN M100, prime quantity 316,000 mcg, 20 min): 313,065 mcg
- Quantity (mcg nafamostat free base) adsorbed over time (minutes), Avg. ([3]; Example 7, PAN M100, prime quantity 316,000 mcg): 292,003 mcg
- Time in which the change in concentration is complete ([3]; non-PAN filter (PAES)): ≤ 5 min
- Time in which the change in concentration is complete ([3]; non-PAN filter (PES)): ≤ 5 min
- Time in which the change in concentration is complete ([3]; non-PAN filter (PS)): ≤ 5 min
- Change in concentration in the PAN filters ([3]; within the first 5 minutes): 80%
- Change in concentration in the PAN filters ([3]; within the first 10 minutes): 95%
- Change in concentration in the PAN filters ([3]; within the first 15 minutes): 99%
- Change in concentration in the PAN filters ([3]; within the first 20 minutes): 99.5%
SMILES: N=C(N)c1ccc2cc(OC(=O)c3ccc(N=C(N)N)cc3)ccc2c1 [Nafamostat, nafamostat]
